Patent publication US8759535B2, “Substituted fused imidazole derivatives, pharmaceutical compositions, and methods of use thereof” (High Point Pharmaceuticals, LLC, priority 2010, dated 2014)
Counter-ions that a name gives are not always drawn.

Each molecule was assayed on HMOX1 (assay: HMOX1 Protein Assay (immunostaining of HO-1 in NHLF cells, GE InCell 1000)). Conditions: Homo sapiens, fold change above DMSO treated cells, 3 μM compound (asterisk), 16 h.
Type: cell-based
In short: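 Fold induction of HO-1 over vehicle, normally at 5 μM compound (asterisk marks 3 μM), in 0.8% DMSO medium. Normal human lung fibroblasts were treated 16 h, then paraformaldehyde-fixed, anti-HO-1/Alexa 488 stained with Hoechst, and read by high-content imaging.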
In the case of Cn1c(Nc2nc3ccc(OC(F)(F)F)cc3s2)nc2cc(C(=O)NCCCOCCO)ccc21 [Example 250, 1-Methyl-2-(6-trifluoromethoxy-benzothiazol-2-ylamino)-1H-benzoimidazole-5-carboxylic acid [3-(2-hydroxy-ethoxy)-propyl]-amide], the fold induction at 3 µM is reported as 25.1. Molecule CC(C)c1ccc2nc(Nc3nc4cc(C(=O)NCC(=O)N(C)C)ccc4n3C)sc2c1 [Example 365, 2-(6-Isopropyl-benzothiazol-2-ylamino)-1-methyl-1H-benzoimidazole-5-carboxylic acid dimethylcarbamoylmethyl-amide] has a fold induction at 3 µM of 20.1. CN(C)CCCNC(=O)c1ccc2c(c1)nc(Nc1nc3ccc(Cl)cc3s1)n2C [Example 349, 2-(6-Chloro-benzothiazol-2-ylamino)-1-methyl-1H-benzoimidazole-5-carboxylic acid (3-dimethylamino-propyl)-amide] gave a fold induction at 3 µM of 29.

Same assay, conditions: Homo sapiens, fold change above DMSO treated cells, 5 μM compound, 16 h
CNCCNC(=O)c1ccc2c(c1)nc(Nc1nc3ccc(OC(F)(F)F)cc3s1)n2C [Example 105, 1-Methyl-2-(6-trifluoromethoxy-benzothiazol-2-ylamino)-1H-benzoimidazole-5-carboxylic acid (2-methylamino-ethyl)-amide] showed a fold induction at 5 µM of 17.5. CCOCCCNC(=O)c1ccc2c(c1)nc(Nc1nc3ccc(OC(F)(F)F)cc3s1)n2C [Example 14, 1-Methyl-2-(6-trifluoromethoxy-benzothiazol-2-ylamino)-1H-benzoimidazole-5-carboxylic acid (3-ethoxy-propyl)-amide] was tested, and the fold induction at 5 µM was 22. CN1CCC(N(C)C(=O)CNC(=O)c2ccc3c(c2)nc(Nc2nc4ccc(Cl)cc4s2)n3C)C1 (stereo not shown) [Example 395, 2-(6-Chloro-benzothiazol-2-ylamino)-1-methyl-1H-benzoimidazole-5-carboxylic acid {[methyl-(1-methyl-pyrrolidin-3-yl)-carbamoyl]-methyl}-amide] showed a fold induction at 5 µM of 72. CCNC(=O)c1ccc2c(c1)nc(Nc1nc3ccc(C(F)(F)F)cc3s1)n2CC [Example 181, 1-Ethyl-2-(6-trifluoromethyl-benzothiazol-2-ylamino)-1H-benzoimidazole-5-carboxylic acid ethylamide] gave a fold induction at 5 µM of 23. Cn1c(Nc2nc3ccc(OC(F)(F)F)cc3s2)nc2cc(C(=O)NCc3nccs3)ccc21 [Example 96, 1-Methyl-2-(6-trifluoromethoxy-benzothiazol-2-ylamino)-1H-benzoimidazole-5-carboxylic acid (thiazol-2-ylmethyl)-amide] gave a fold induction at 5 µM of 12. In the case of CCN(CC)C(=O)CNC(=O)c1ccc2c(c1)nc(Nc1nc3ccc(OC(F)(F)F)cc3s1)n2C [Example 140, 1-Methyl-2-(6-trifluoromethoxy-benzothiazol-2-ylamino)-1H-benzimidazole-5-carboxylic acid diethylcarbamoylmethyl-amide], the fold induction at 5 µM is reported as 19.3. With CNCCOCCNC(=O)c1ccc2c(c1)nc(Nc1nc3ccc(Cl)cc3s1)n2C [Example 272, 2-(6-Chloro-benzothiazol-2-ylamino)-1-methyl-1H-benzoimidazole-5-carboxylic acid [2-(2-methylamino-ethoxy)-ethyl]-amide hydrochloride] the fold induction at 5 µM was 86.5. For Cn1c(Nc2nc3ccc(OC(F)(F)F)cc3s2)nc2cc(C(=O)NCCO)ccc21 [Example 10, 1-Methyl-2-(6-trifluoromethoxy-benzothiazol-2-ylamino)-1H-benzoimidazole-5-carboxylic acid (2-hydroxy-ethyl)-amide], the fold induction at 5 µM was 19.9. Cn1c(Nc2nc3ccc(Cl)cc3s2)nc2cc(C(=O)NCC(=O)NC3CCOCC3)ccc21 [Example 385, 2-(6-Chloro-benzothiazol-2-ylamino)-1-methyl-1H-benzoimidazole-5-carboxylic acid [(tetrahydro-pyran-4-ylcarbamoyl)-methyl]-amide] showed a fold induction at 5 µM of 24.5. In the case of Cn1c(Nc2nc3ccc(OC(F)(F)F)cc3s2)nc2cc(C(=O)NCC3CCOCC3)ccc21 [Example 17, 1-Methyl-2-(6-trifluoromethoxy-benzothiazol-2-ylamino)-1H-benzoimidazole-5-carboxylic acid (tetrahydro-pyran-4-ylmethyl)-amide], the fold induction at 5 µM is reported as 21.4. CNC(=O)c1ccc2c(c1)nc(Nc1nc3ccc(OC(F)(F)F)cc3s1)n2CCOC [Example 167, 1-(2-Methoxy-ethyl)-2-(6-trifluoromethoxy-benzothiazol-2-ylamino)-1H-benzoimidazole-5-carboxylic acid methylamide] was tested, and the fold induction at 5 µM was 24.2. In the case of Cn1c(Nc2nc3ccc(Cl)cc3s2)nc2cc(C(=O)N[C@H]3CC[C@H](C(=O)O)CC3)ccc21 [Example 378, 4-{[2-(6-Chloro-benzothiazol-2-ylamino)-1-methyl-1H-benzoimidazole-5-carbonyl]-amino}-trans-cyclohexanecarboxylic acid], the fold induction at 5 µM is reported as 24.9. With COCCNC(=O)c1ccc2c(c1)nc(Nc1nc3cc(OC(F)(F)F)ccc3s1)n2C [Example 116, 1-Methyl-2-(5-trifluoromethoxy-benzothiazol-2-ylamino)-1H-benzimidazole-5-carboxylic acid (2-methoxy-ethyl)-amide] the fold induction at 5 µM was 22.3. In the case of CNC(=O)c1ccc2c(c1)nc(Nc1nc3cc(F)c(F)cc3s1)n2C [Example 86, 2-(5,6-Difluoro-benzothiazol-2-ylamino)-1-methyl-1H-benzoimidazole-5-carboxylic acid methylamide], the fold induction at 5 µM is reported as 9.7. For CN(C)CC(=O)N1CCC(NC(=O)c2ccc3c(c2)nc(Nc2nc4ccc(Cl)cc4s2)n3C)CC1 [Example 313, 2-(6-Chloro-benzothiazol-2-ylamino)-1-methyl-1H-benzoimidazole-5-carboxylic acid [1-(2-dimethylamino-acetyl)-piperidin-4-yl]-amide], the fold induction at 5 µM was 22.9. In the case of Cn1c(Nc2nc3ccc(OC(F)(F)F)cc3s2)nc2cc(C(=O)NCCOCCF)ccc21 [Example 47, 1-Methyl-2-(6-trifluoromethoxy-benzothiazol-2-ylamino)-1H-benzoimidazole-5-carboxylic acid [2-(2-fluoro-ethoxy)-ethyl]-amide], the fold induction at 5 µM is reported as 11.3. Work on CN(C)CC1CCCN(C(=O)CNC(=O)c2ccc3c(c2)nc(Nc2nc4ccc(Cl)cc4s2)n3C)C1 (stereo not shown) [Example 461, 2-(6-Chloro-benzothiazol-2-ylamino)-1-methyl-1H-benzoimidazole-5-carboxylic acid [2-(3-dimethylaminomethyl-piperidin-1-yl)-2-oxo-ethyl]-amide] yielded a fold induction at 5 µM of 27.1. CCOC(=O)c1cnc2c(c1)nc(Nc1nc3ccc(OC(F)(F)F)cc3s1)n2C [Example 71, 3-Methyl-2-(6-trifluoromethoxy-benzothiazol-2-ylamino)-3H-imidazo[4,5-b]pyridine-6-carboxylic acid ethyl ester] was tested, and the fold induction at 5 µM was 4.2. Cn1c(Nc2nc3ccc(OC(F)(F)F)cc3s2)nc2cc(C(=O)NCC(=O)N3CCC(O)CC3)ccc21 [Example 435, 1-Methyl-2-(6-trifluoromethoxy-benzothiazol-2-ylamino)-1H-benzoimidazole-5-carboxylic acid [2-(4-hydroxy-piperidin-1-yl)-2-oxo-ethyl]-amide] gave a fold induction at 5 µM of 30.2. Work on CCOCCNC(=O)c1ccc2c(c1)nc(Nc1nc3ccc(Cl)cc3s1)n2CC [Example 179, 2-(6-Chloro-benzothiazol-2-ylamino)-1-ethyl-1H-benzoimidazole-5-carboxylic acid (2-ethoxy-ethyl)-amide] yielded a fold induction at 5 µM of 24.4. For C[C@@H](O)CNC(=O)CNC(=O)c1ccc2c(c1)nc(Nc1nc3ccc(Cl)cc3s1)n2C [Example 382, 2-(6-Chloro-benzothiazol-2-ylamino)-1-methyl-1H-benzoimidazole-5-carboxylic acid [((R)-2-hydroxy-propylcarbamoyl)-methyl]-amide], the fold induction at 5 µM was 20.6. In the case of Cn1c(Nc2nc3ccc(Cl)cc3s2)nc2cc(C(=O)NCC(=O)N3CCOCC3)ccc21 [Example 421, 2-(6-Chloro-benzothiazol-2-ylamino)-1-methyl-1H-benzoimidazole-5-carboxylic acid (2-morpholin-4-yl-2-oxo-ethyl)-amide], the fold induction at 5 µM is reported as 32.2. Molecule COC(C)(C)CNC(=O)c1ccc2c(c1)nc(Nc1nc3ccc(OC(F)(F)F)cc3s1)n2C [Example 22, 1-Methyl-2-(6-trifluoromethoxy-benzothiazol-2-ylamino)-1H-benzoimidazole-5-carboxylic acid (2-methoxy-2-methyl-propyl)-amide] has a fold induction at 5 µM of 18.7. CN(C)C(=O)CNC(=O)c1cc2nc(Nc3nc4ccc(OC(F)(F)F)cc4s3)n(C)c2cc1F [Example 58, 6-Fluoro-1-methyl-2-(6-trifluoromethoxy-benzothiazol-2-ylamino)-1H-benzoimidazole-5-carboxylic acid dimethylcarbamoylmethyl-amide] gave a fold induction at 5 µM of 32.8. With Cn1c(Nc2nc3ccc(OC(F)(F)F)cc3s2)nc2cc(C(=O)NCC(=O)OC(C)(C)C)ccc21 [Example 91, {[1-Methyl-2-(6-trifluoromethoxy-benzothiazol-2-ylamino)-1H-benzoimidazole-5-carbonyl]-amino}-acetic acid tert-butyl ester] the fold induction at 5 µM was 10.1. For CCOC(C)CNC(=O)c1ccc2c(c1)nc(Nc1nc3ccc(OC(F)(F)F)cc3s1)n2C (stereo not shown) [Example 54, 1-Methyl-2-(6-trifluoromethoxy-benzothiazol-2-ylamino)-1H-benzoimidazole-5-carboxylic acid (2-ethoxy-propyl)-amide], the fold induction at 5 µM was 18.5. Work on Cn1c(Nc2nc3ccc(OC(F)(F)F)cc3s2)nc2cc(C(=O)NCC3COCCO3)ccc21 (stereo not shown) [Example 49, 1-Methyl-2-(6-trifluoromethoxy-benzothiazol-2-ylamino)-1H-benzoimidazole-5-carboxylic acid ([1,4]dioxan-2-ylmethyl)-amide] yielded a fold induction at 5 µM of 23.1. Cn1c(Nc2nc3ccc(OC(F)(F)F)cc3s2)nc2cc(C(=O)NCC(C)(C)O)ccc21 [Example 45, 1-Methyl-2-(6-trifluoromethoxy-benzothiazol-2-ylamino)-1H-benzoimidazole-5-carboxylic acid (2-hydroxy-2-methyl-propyl)-amide] was tested, and the fold induction at 5 µM was 12.5.
